According to patent EP0411567A1, “5-(omega-Aminoacyl)-5,10-dihydro-11H-dibenzo[b,e][1,4]-diazepin-11-ones, processes for their preparation, and their use as medicaments” (ARZNEIMITTELWERK DRESDEN GmbH, priority 1989, dated 1991):
Structures can show the parent of a compound that is named as a salt. Where two headings read alike, the source gives them in different places.

Assays:
[1] = test system: CaCl₂-Arrhythmie der Ratte; assay: CaCl₂-induced arrhythmia in the rat (antifibrillatory effect); format: in vivo; settings: iv; for ED50: Rattus norvegicus, read-out: CaCl₂-Arrhythmie Ratte, ED₅₀
Source text: (§1) ED₅₀ i.v. = Dosis in mg/kg, welche die fibrillatorische Wirkung von CaCl₂ an Ratten nach I.v.-Applikation der Testsubstanz um 50 % unterdrückt. Berechnung nach der Probit-Regressionsanalyse mit Vertrauensbereich, p = 0,05 (Werte in Klammern) LD₅₀ i.v. = Letale Dosis in mg/kg bei 50 % der Versuchstiere einer orientierenden Bestimmung der akuten Toxizität an Wistarratten hauseigener Zucht, I.v.-Applikation in die Schwanzvene, 3 - 4 Dosierungen zu je 10 Tieren.

[2] = test system: Hunden, 24 Stunden nach zweistufiger Koronarligatur (Harris-Modell); assay: Two-stage coronary ligation in the dog (Harris model); format: in vivo, Hund; settings: for Ektopische Kontraktionen in Prozent/min / Gesamtzahl der Herzkontraktionen/min: mean x; for Harris Hund Wirkungsdauer / Harris Hund eff. Dosis i.v.: dogs, 24 h after two-stage coronary ligation; for Harris Hund Wirkungsdauer: at the effective i.v. dose
Procedure: Am Modell der zweistufigen Koronarligatur am Hund nach Harris (Methodik bei Kaverina und Mitarbeiter, Pharmazie 40, S. 845 (1985)) zeigen die Verbindungen der allgemeinen Formeln I, VII bzw. X eine starke und langanhaltende Wirkung (siehe Tabellen 2 und 3).
Bereits in der 5. Minute nach der intravenösen Injektion der Verbindungen der allgemeinen Formeln I, VII bzw. X in einer Konzentration von 0,005 mmol/kg (ca. 2,0 mg/kg) wird die ektopischeArrhythmie um das 2- bis 3-fache des Basiswertes unterdrückt, während die Gesamtzahl der Herzkontraktionen konstant bleibt. Die Wirkung auf die ektopische Arrhythmie hält 30 bis 60 Minuten lang an. Tabelle 1
(§2) Berechnung nach der Probit-Regressionsanalyse mit Vertrauensbereich, p = 0,05 (Werte in Klammern) [formula] zur Ermittlung der therapeutischen Breite eff. Dosis = effektive Dosis in mg/kg Wirkungsdauer = Wirkungsdauer in Minuten an Hunden, 24 h nach zweistufiger Koronarligatur
x = Mittelwert s = Standardabweichung ±

[3] = test system: Wistarratten; assay: Orienting determination of acute toxicity in rats, i.v.; format: in vivo, Ratte; settings: therapeutic breadth; rat LD₅₀ i.v. / rat CaCl₂-arrhythmia ED₅₀
Source text: Die Verbindungen der allgemeinen Formeln I, VII bzw.
as §1, §2

[4] = test system: Hunden, 24 Stunden nach zweistufiger Koronarligatur (Harris-Modell); settings: Harris model, cited from earlier work
[5] = dose suppressing the fibrillatory effect of CaCl₂ by 50 %, probit regression, confidence range p = 0,05 in brackets
[6] = 30 min after 0,005 mmol/kg i.v.
[7] = 60 min after 0,005 mmol/kg i.v.
[8] = 120 min after 0,005 mmol/kg i.v.
[9] = 180 min after 0,005 mmol/kg i.v.
[10] = Basis (before injection), 0,005 mmol/kg group
[11] = 300 min after 0,005 mmol/kg i.v.
[12] = 360 min after 0,005 mmol/kg i.v.
[13] = 5 min after 0,02 mmol/kg (5,4 mg/kg)
[14] = 30 min after 0,02 mmol/kg (5,4 mg/kg)
[15] = Basis (before injection), 0,02 mmol/kg (5,4 mg/kg) group

Row | SMILES | ED50 [1, 5] | Ektopische Kontraktionen in Prozent/min ([2]; 5 min after 0,005 mmol/kg i.v.) | Gesamtzahl der Herzkontraktionen/min ([2]; 5 min after 0,005 mmol/kg i.v.) | Ektopische Kontraktionen in Prozent/min [2, 6] | Gesamtzahl der Herzkontraktionen/min [2, 6] | Ektopische Kontraktionen in Prozent/min [2, 7] | Gesamtzahl der Herzkontraktionen/min [2, 7] | Ektopische Kontraktionen in Prozent/min [2, 8] | Gesamtzahl der Herzkontraktionen/min [2, 8] | Ektopische Kontraktionen in Prozent/min [2, 10] | Gesamtzahl der Herzkontraktionen/min [2, 10] | Harris Hund Wirkungsdauer [2] | Harris Hund eff. Dosis i.v. [2] | Q LD₅₀/ED₅₀ [3] | also measured
1 | CN(C)CCCCCC(=O)N1c2ccccc2NC(=O)c2ccccc21 [Beispiel 1, 5-(6-Dimethylaminocapronyl)-5,10-dihydro-11H-dibenzo [b,e]-[1,4] diazepin-11-on·HCl] | 0.41 mg/kg | 30 Prozent | 192 min⁻¹ | 47 Prozent | 193 min⁻¹ | 54 Prozent | 177 min⁻¹ | 68 Prozent | 175 min⁻¹ | 99 Prozent | 164 min⁻¹ | 60 min | 1,76 mg/kg | 207 | Ektopische Kontraktionen in Prozent/min [2, 9]: 80 Prozent; Gesamtzahl der Herzkontraktionen/min [2, 9]: 169 min⁻¹
2 | CCN(CC)CCCC(=O)N1c2ccccc2NC(=O)c2ccccc21 [Beispiel 2, 5-(4-Diethylaminobutyryl)-5,10-dihydro-11H-dibenzo[b,e]-[1,4]diazepin-11-on] | – | 26 Prozent | – | 24 Prozent | – | 75 Prozent | – | 90 Prozent | – | 88 Prozent | – | – | – | – | –
3 | CCN(CC)CCCC(=O)N1c2ccc(Cl)cc2NC(=O)c2ccccc21 [Beispiel 4, 8-Chlor-5-(4-diethylaminobutyryl)-5,10-dihydro-11H-dibenzo[b,e] [1,4]diazepin-11-on] | 0.044 mg/kg | – | 175 min⁻¹ | – | 180 min⁻¹ | – | 181 min⁻¹ | – | 183 min⁻¹ | – | 183 min⁻¹ | 30 min | 1,93 mg/kg | 1614 | –
4 | CCN(CC)CCCCCC(=O)N1c2ccc(Cl)cc2NC(=O)c2ccccc21 [Beispiel 6, 8-Chlor-5-(6-diethylaminocapronyl)-5,10-dihydro-11H-dibenzo[be] [1,4]diazepin-11-on] | 0.44 mg/kg | 20 Prozent | 170 min⁻¹ | 4 Prozent | 159 min⁻¹ | 37 Prozent | 162 min⁻¹ | 76 Prozent | 162 min⁻¹ | 78 Prozent | 167 min⁻¹ | 60 min | 2,07 mg/kg | 86 | –
5 | O=C1Nc2cc(Cl)ccc2N(C(=O)CCCCCCN2CCOCC2)c2ccccc21 [Beispiel 9, 8-Chlor-5-(7-N-morpholinoönanthoyl)-5,10-dihydro-11H-dibenzo [b,e] [1,4]diazepin-11-on] | 0.16 mg/kg | 21 Prozent | 179 min⁻¹ | 38 Prozent | 164 min⁻¹ | 42 Prozent | 168 min⁻¹ | 42 Prozent | 156 min⁻¹ | 90 Prozent | 156 min⁻¹ | 120 min | 2,21 mg/kg | 256 | Ektopische Kontraktionen in Prozent/min [2, 9]: 73 Prozent; Gesamtzahl der Herzkontraktionen/min [2, 9]: 159 min⁻¹; Ektopische Kontraktionen in Prozent/min [2, 11]: 79 Prozent; Gesamtzahl der Herzkontraktionen/min [2, 11]: 163 min⁻¹; Ektopische Kontraktionen in Prozent/min [2, 12]: 89 Prozent; Gesamtzahl der Herzkontraktionen/min [2, 12]: 180 min⁻¹
6 | C=CC1CN2CCC1CC2C(O)c1ccnc2ccc(OC)cc12 (centres unmarked) [Chinidin] | – | – | – | – | – | – | – | – | – | – | – | – | – | – | CaCl₂-Arrhythmie Ratte, ED₅₀ ([1]; in vivo): 2,7 (2,0 - 3,7) mg/kg; Harris Hund Wirkungsdauer ([4]; dogs, listed as whose dose is marked [1] (literature)): 15 min; Harris Hund eff. Dosis i.v. ([4]; dogs, value marked [1] (Mokler and van Arman 1962)): 10,0 [1] mg/kg; Gesamtzahl der Herzkontraktionen ([4]; in words, literature [1]): Abnahme; ektopische Arrhythmie ([4]; in words, literature [1]): Abnahme
7 | CCN(CC)CC(=O)Nc1c(C)cccc1C [Lidocain, reference compound] | – | – | – | – | – | – | – | – | – | – | – | 15 min | 8,0 mg/kg | – | ED50 [1]: 3.1 mg/kg; Ektopische Kontraktionen in Prozent/min [2, 13]: 34 Prozent; Gesamtzahl der Herzkontraktionen/min [2, 13]: 139 min⁻¹; Ektopische Kontraktionen in Prozent/min [2, 14]: 78 Prozent; Gesamtzahl der Herzkontraktionen/min [2, 14]: 138 min⁻¹; Ektopische Kontraktionen in Prozent/min [2, 15]: 83 Prozent; Gesamtzahl der Herzkontraktionen/min [2, 15]: 146 min⁻¹; Gesamtzahl der Herzkontraktionen ([2]; in words, Harris model): Abnahme; ektopische Arrhythmie ([2]; in words, Harris model): Abnahme
